Results from patent US6596545B1, “Microdevices for screening biomolecules” (priority 1998, dated 2003).

Tests used:
Type in all cases: biochemical
[1] = system: HIV variants (HIV protease variants, HIV-GST-K6); assay: FRET protease activity assay in microchannels, immobilized HIV protease variants; settings: all immobilized variants other than G48V or L90M; substrate Dns-SQNYPIVW 20 μM, pH 5.5
Protocol: HIV protease variants, in the form of HIV-GST-K6, and GST-K6 are immobilized to the aminoreactive monolayer surface of the microchannel device (see Example 4, above). HIV-GST-K6 and GST-K6 are diluted to concentrations of 1 μg/ml in 25 mM HEPES buffer (pH 7.5) containing 150 mM NaCl. First, 50 μl of protein-free buffer is transferred through the channels to hydrate the monolayer surface. After 5 min of incubation, 10 μl of the corresponding protein solutions are flushed through the channels to guarantee total replacement with protein-containing solution. Immobilization is finished after 30 min at room temperature. The channels are rinsed with 50 μl immobilization buffer and subjected to analysis. […]
HIV protease requires at least a heptapeptide substrate (Moore et al., Biochem. Biophys. Res. Commun., 1989, 159:420). To analyze the activity of the different HIV variants, a continuous assay based on intra-molecular fluorescence resonance energy transfer (FRET) is used. […] The modified heptapeptide; Dns-SQNYPIVW is prepared as described (Geoghegan et al.) and analyzed by amino acid analysis, nuclear magnetic resonance and mass spectrometry. […] Addition of the substrate to the immobilized proteins leads to time-dependent intensity changes in the fluorescence emission spectrum. […] To control for changes in background fluorescence, GST-K6 fusion protein is measured in parallel. […]

[2] = molecular target: L10R HIV protease variant (Human immunodeficiency virus type 1 group M subtype B, UniProt P04585, L498R); settings: substrate Dns-SQNYPIVW, pH 5.5
Protocol: (§1) HIV protease variants, in the form of HIV-GST-K6, and GST-K6 are immobilized to the aminoreactive monolayer surface of the microchannel device (see Example 4, above). HIV-GST-K6 and GST-K6 are diluted to concentrations of 1 μg/ml in 25 mM HEPES buffer (pH 7.5) containing 150 mM NaCl. First, 50 μl of protein-free buffer is transferred through the channels to hydrate the monolayer surface. After 5 min of incubation, 10 μl of the corresponding protein solutions are flushed through the channels to guarantee total replacement with protein-containing solution. Immobilization is finished after 30 min at room temperature. The channels are rinsed with 50 μl immobilization buffer and subjected to analysis. […] Ultrapure water with a resistance of 18 MΩcm is generally used for all aqueous buffers (purified by passage through a Barnstead Nanopure® system).
(§2) HIV protease requires at least a heptapeptide substrate (Moore et al., Biochem. Biophys. Res. Commun., 1989, 159:420). To analyze the activity of the different HIV variants, a continuous assay based on intra-molecular fluorescence resonance energy transfer (FRET) is used. […] Excitation of Trp is at […], and emission of Dns is at 575 nm. Cleavage of the peptide at the Tyr-Pro bond reduces the Dns emission and increases Trp emission at 360 nm. The modified heptapeptide; Dns-[…] is prepared as described (Geoghegan et al.) and analyzed by amino acid analysis, nuclear magnetic resonance and mass spectrometry. The purity is checked by HPLC analysis using a Vydac C-4 column and an acetonitrile gradient in 0.1% TFA. In order to test the activity of all the HIV variants described above, each microchannel with an immobilized HIV variant (see Example 6) is filled with 20 μM of Dns-[…] in 50 mM sodium acetate, pH 5.5, 13% glycerol, 10 mM DTT. Addition of the substrate to the immobilized proteins leads to time-dependent intensity changes in the fluorescence emission spectrum. […] To control for changes in background fluorescence, GST-K6 fusion protein is measured in parallel.
(§3) Competition assays can be carried out to test the specificity of the proteolysis by the HIV variants.

[3] = molecular target: HIV protease A71V variant (Human immunodeficiency virus type 1 group M subtype B, UniProt P04585, A559V/P588I); settings: substrate Dns-SQNYPIVW, pH 5.5
Protocol: as §1, §2, §3

[4] = molecular target: HIV protease L63P variant (Human immunodeficiency virus type 1 group M subtype B, UniProt P04585, L551P); settings: substrate Dns-SQNYPIVW, pH 5.5
Protocol: as §1, §2, §3

[5] = molecular target: HIV protease M461 variant (Human immunodeficiency virus type 1 group M subtype B, UniProt P04585, M534I); settings: substrate Dns-SQNYPIVW, pH 5.5
Protocol: as §1, §2, §3

[6] = molecular target: HIV protease V82F variant (Human immunodeficiency virus type 1 group M subtype B, UniProt P04585, V570F); settings: substrate Dns-SQNYPIVW, pH 5.5
Protocol: as §1, §2, §3

[7] = molecular target: HIV protease 184V variant (Human immunodeficiency virus type 1 group M subtype B, UniProt P04585, I572V/P588I); settings: substrate Dns-SQNYPIVW, pH 5.5
Protocol: as §1, §2, §3

With `CC(C)(C)NC(=O)[C@@H]1C[C@@H]2CCCC[C@@H]2CN1C[C@@H](O)[C@H](Cc1ccccc1)NC(=O)[C@H](CC(N)=O)NC(=O)c1ccc2ccccc2n1` [Sequinavir] the “inhibition of HIV variants” value [1] was “will inhibit all the HIV variants except those containing either the G48V or the L90M mutation”.

For `CC(C)(C)NC(=O)[C@@H]1CN(Cc2cccnc2)CCN1C[C@@H](O)C[C@@H](Cc1ccccc1)C(=O)N[C@H]1c2ccccc2C[C@H]1O` [Indinavir], the “decrease of protease activity” value [2] was “not able to decrease the activity” and the “block of protease activity” value [3] was “the A71V variant is not affected”.

`CC(C)c1nc(CN(C)C(=O)N[C@H](C(=O)N[C@@H](Cc2ccccc2)C[C@H](O)[C@H](Cc2ccccc2)NC(=O)OCc2cncs2)C(C)C)cs1` [Ritonavir] was tested, and the “block of protease activity” value [4] was “unable to block the activity”, the “block of protease activity” value [5] was “unable to block the activity” and the “block of protease activity” value [6] was “unable to block the activity”. For the same molecule, the “block of protease activity” value [3] was “unable to block the activity” and the “block of protease activity” value [7] was “unable to block the activity”.
